This is an account of results in patent publication US20230131899A1, “INHIBITORS OF MICROBIALLY INDUCED AMYLOID” (Axial Therapeutics, Inc., priority 2020, published 2023).

Molecules are shown by their SMILES. Read-outs that look alike come from different tables or passages of the source. Bounds are passed on as bounds.

This assay addresses T1, human α-synuclein (Homo sapiens, UniProt P37840).
T1 construct: the full-length gene for untagged human α-synuclein was inserted; made in house; host or cells: E. coli BL21(DE3), plasmid derived from pT7 or pET11a
Nature of the assay: Cell-free Thioflavin T assay of α-synuclein aggregation (αSyn ThT Assay). The format is biochemical. Conditions: αSyn 50 μM. In a few lines:
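Inhibition is reported as 100% minus background-corrected ThT signal relative to vehicle wells, taken at 36, 47, 48 or 72 h or the last read. Reactions held 50 μM recombinant α-synuclein, 20-100 μM compound, 20-40 μM ThT and 1% DMSO. Incubation was at 37° C., shaken, with a glass bead.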

Setting [1] is: class symbol, compounds 100 μM, read-out: αSyn ThT Assay % inhibition, activity range.
The mark [2] stands for this setting: mean percent inhibition relative to DMSO control, compounds 100 μM, read-out: αSyn ThT Assay % inhibition.
Where [3] appears, read: mean % inhibition of αSyn aggregation relative to DMSO control, compounds at 100 μM, read-out: αSyn ThT Assay % Inhibition.
The mark [4] stands for this setting: compounds at 100 μM, class symbol, read-out: αSyn ThT Assay % Inhibition (activity range).

On to `CCCN1CC(C(=O)O)n2c(c(-c3cccc(C(F)(F)F)c3)c(Cc3cccc4ccccc34)c(Cl)c2=O)S1(=O)=O` (centres unmarked) [Compound 142, 7-chloro-8-(naphthalen-1-ylmethyl)-6-oxo-2-propyl-9-(3-(trifluoromethyl)phenyl)-3,4-dihydro-2H,6H-pyrido[1,2-e][1,2,5]thiadiazine-4-carboxylic acid 1,1-dioxide], for which the inhibition at 100 µM by setting is: under setting [1], 31 to 60%; under setting [2], 40%.
Regarding `O=C(O)C1CSc2c(-c3cccc(C(F)(F)F)c3)c(Cc3cccc4ccccc34)cc(=S)n21` (centres unmarked) [Compound 054, 7-(naphthalen-1-ylmethyl)-5-thioxo-8-(3-(trifluoromethyl)phenyl)-2,3-dihydro-5H-thiazolo[3,2-a]pyridine-3-carboxylic acid], the inhibition at 100 µM under setting [3] turned out to be 39% and the inhibition at 100 µM under setting [4] fell in the range of 31 to 60%.
As to `CCCN1CC(C(=O)O)n2c(c(-c3cccc(C(F)(F)F)c3)c(Cc3cccc4ccccc34)c(OCC)c2=O)S1(=O)=O` (centres unmarked) [Compound 143, 7-ethoxy-8-(naphthalen-1-ylmethyl)-6-oxo-2-propyl-9-(3-(trifluoromethyl)phenyl)-3,4-dihydro-2H,6H-pyrido[1,2-e][1,2,5]thiadiazine-4-carboxylic acid 1,1-dioxide], the inhibition at 100 µM runs as follows: under setting [1], above 60%; under setting [2], 96%.
For `NC(=O)c1c(Cc2cccc3ccccc23)c(-c2cccc(C(F)(F)F)c2)c2n(c1=O)C(C(=O)O)CN(CCCO)S2(=O)=O` (centres unmarked) [Compound 184, 7-carbamoyl-2-(3-hydroxypropyl)-8-(naphthalen-1-ylmethyl)-6-oxo-9-(3-(trifluoromethyl)phenyl)-3,4-dihydro-2H,6H-pyrido[1,2-e][1,2,5]thiadiazine-4-carboxylic acid 1,1-dioxide], in that order: above 60% and 75%.
Turning to `O=C(O)C1n2c(c(-c3cccc(C(F)(F)F)c3)c(Cc3cccc4ccccc34)nc2=O)SC12CCCC2` (centres unmarked) [Compound 053, 7′-(naphthalen-1-ylmethyl)-5′-oxo-8′-(3-(trifluoromethyl)phenyl)-3′H,5′H-spiro[cyclopentane-1,2′-thiazolo[3,2-c]pyrimidine]-3′-carboxylic acid], the inhibition at 100 µM reads like this: under setting [3], 65%; under setting [4], above 60%.
As to `O=C(O)C1CN(Cc2cccc3ccccc23)c2c(-c3cccc(C(F)(F)F)c3)c(Cc3cccc4ccccc34)c(Cl)c(=O)n21` (centres unmarked) [Compound 200, 6-chloro-1,7-bis(naphthalen-1-ylmethyl)-5-oxo-8-(3-(trifluoromethyl)phenyl)-1,2,3,5-tetrahydroimidazo[1,2-a]pyridine-3-carboxylic acid], the inhibition at 100 µM is above 60% under setting [1] and 84% under setting [2].
As for `O=C(O)C1CN(Cc2ccccc2)c2c(-c3cccc(C(F)(F)F)c3)c(Cc3cccc4ccccc34)c(Br)c(=O)n21` (centres unmarked) [Compound 003, 1-benzyl-6-bromo-7-(naphthalen-1-ylmethyl)-5-oxo-8-(3-(trifluoromethyl)phenyl)-1,2,3,5-tetrahydroimidazo[1,2-a]pyridine-3-carboxylic acid], the inhibition at 100 µM by setting is: under setting [1], above 60%; under setting [2], 76%.
For the compound `CCCN1CC(C(=O)O)n2c(c(-c3cccc(C(F)(F)F)c3)c(Cc3cccc4ccccc34)c(NC(=O)C(C)C)c2=O)S1(=O)=O` (centres unmarked) [Compound 152, 7-isobutyramido-8-(naphthalen-1-ylmethyl)-6-oxo-2-propyl-9-(3-(trifluoromethyl)phenyl)-3,4-dihydro-2H,6H-pyrido[1,2-e][1,2,5]thiadiazine-4-carboxylic acid 1,1-dioxide], the inhibition at 100 µM was 31 to 60% under setting [1] and 54% under setting [2].
As for `Cc1c(Cc2cccc3ccccc23)c(-c2cccc(C(F)(F)F)c2)c2n(c1=O)C(C(=O)O)CN(C)S2(=O)=O` (centres unmarked) [Compound 068, 2,7-dimethyl-8-(naphthalen-1-ylmethyl)-6-oxo-9-(3-(trifluoromethyl)phenyl)-3,4-dihydro-2H,6H-pyrido[1,2-e][1,2,5]thiadiazine-4-carboxylic acid 1,1-dioxide], the inhibition at 100 µM is 74% under setting [3] and above 60% under setting [4].
For `CCCN1CC(C(=O)O)n2c1c(-c1cccc(C(F)(F)F)c1)c(Cc1cccc3ccccc13)c(Cl)c2=O` (centres unmarked) [Compound 162, 6-chloro-7-(naphthalen-1-ylmethyl)-5-oxo-1-propyl-8-(3-(trifluoromethyl)phenyl)-1,2,3,5-tetrahydroimidazo[1,2-a]pyridine-3-carboxylic acid], the inhibition at 100 µM is above 60% under setting [1] and 67% under setting [2].
As to `CCCN1CC(C(=O)O)n2c(c(-c3cccc(C(F)(F)F)c3)c(Cc3cccc4ccccc34)c(O)c2=O)S1(=O)=O` (centres unmarked) [Compound 141, 7-hydroxy-8-(naphthalen-1-ylmethyl)-6-oxo-2-propyl-9-(3-(trifluoromethyl)phenyl)-3,4-dihydro-2H,6H-pyrido[1,2-e][1,2,5]thiadiazine-4-carboxylic acid 1,1-dioxide], the inhibition at 100 µM under setting [1] was above 60% and the inhibition at 100 µM under setting [2] is 79%.
On to `Cn1c(=O)c2c(nc(CCCCCN3CC(C(=O)O)n4c(c(-c5cccc(C(F)(F)F)c5)c(Cc5cccc6ccccc56)cc4=O)S3(=O)=O)n2C)n(C)c1=O` (centres unmarked) [Compound 045, 8-(naphthalen-1-ylmethyl)-6-oxo-9-(3-(trifluoromethyl)phenyl)-2-(5-(1,3,7-trimethyl-2,6-dioxo-2,3,6,7-tetrahydro-1H-purin-8-yl)pentyl)-3,4-dihydro-2H,6H-pyrido[1,2-e][1,2,5]thiadiazine-4-carboxylic acid 1,1-dioxide], for which the inhibition at 100 µM by setting is: under setting [3], 15%; under setting [4], 11 to 30%.
In the case of `CC(C)N1CC(C(=O)O)n2c1c(-c1cccc(C(F)(F)F)c1)c(Cc1cccc3ccccc13)c(Cl)c2=O` (centres unmarked) [Compound 179, 6-chloro-1-isopropyl-7-(naphthalen-1-ylmethyl)-5-oxo-8-(3-(trifluoromethyl)phenyl)-1,2,3,5-tetrahydroimidazo[1,2-a]pyridine-3-carboxylic acid], the inhibition at 100 µM under setting [1] was above 60% and the inhibition at 100 µM under setting [2] turned out to be 72%.
On to `CN1CC(C(=O)O)n2c(c(-c3cccc(C(F)(F)F)c3)c(Cc3cccc4ccccc34)c(NC3CCCC3)c2=O)S1(=O)=O` (centres unmarked) [Compound 070, 7-(cyclopentylamino)-2-methyl-8-(naphthalen-1-ylmethyl)-6-oxo-9-(3-(trifluoromethyl)phenyl)-3,4-dihydro-2H,6H-pyrido[1,2-e][1,2,5]thiadiazine-4-carboxylic acid 1,1-dioxide], for which the inhibition at 100 µM was 53% under setting [3] and 31 to 60% under setting [4].
As to `O=C(O)c1c(-c2ccccc2)sc2c(-c3cccc(C(F)(F)F)c3)c(Cc3cccc4ccccc34)cc(=O)n12` [Compound 051, 7-(naphthalen-1-ylmethyl)-5-oxo-2-phenyl-8-(3-(trifluoromethyl)phenyl)-5H-thiazolo[3,2-a]pyridine-3-carboxylic acid], the inhibition at 100 µM is 47% under setting [3] and 31 to 60% under setting [4].
On the same counts, the results for `CNC(=O)C1CN(C)S(=O)(=O)c2c(-c3cccc(C(F)(F)F)c3)c(Cc3cccc4ccccc34)cc(=O)n21` (centres unmarked) [Compound 031, N,2-dimethyl-8-(naphthalen-1-ylmethyl)-6-oxo-9-(3-(trifluoromethyl)phenyl)-3,4-dihydro-2H,6H-pyrido[1,2-e][1,2,5]thiadiazine-4-carboxamide 1,1-dioxide] are 18% and 11 to 30%.

What is called inhibition is the drop in the measured response relative to a control, in per cent.
